Source: the supplement of paper PMC8837787

Test system: Saccharomyces cerevisiae ABC16-Green Monster
Assay: growth inhibition at single dose (up to 150 µM), below the 70% cut-off for dose-response; higher = more potent
Conditions: 18 h; 30 °C; YPD
Summary of the method: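 The entry is percent growth inhibition of drug-sensitive S. cerevisiae ABC16-Green Monster cells. After overnight growth in YPD at 30 °C, cells were diluted to OD600 0.1–0.2 and exposed to each library compound at 150 µM in 200 µl per well, in biological duplicates with untreated cultures beside them, and OD600 was read at 0 h and after 18 h at 30 °C. Any compound under 70% in both replicates was not carried to dose-response.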

Row | Compound | growth inhibition at single dose
1 | Cc1cc(C)cc(Nc2cc(C)nc3nc(C(F)(F)F)nn23)c1 | < 70%
2 | O=C(c1c[nH]c2ccccc12)C(c1ccccc1)N1CCN(CC(=O)N2CCCC2)CC1 (stereo unspecified) | < 70%
3 | N=C(N)c1ccc(-c2cc(-c3ccccc3)on2)cc1 | < 70%
4 | CCCCS(=O)(=O)Nc1ccc2cnn(C)c2c1 | < 70%
5 | CNc1snc(C)c1C(=O)N(C)Cc1ccccc1OC(F)(F)F | < 70%
6 | CC1COC2(CCN(c3nc(=O)c4cc(C(F)(F)F)cc([N+](=O)[O-])c4s3)CC2)O1 (stereo unspecified) | < 70%
7 | CN(CC(=O)NC1CC1)C(=O)CNc1ccccc1Oc1ccccc1 | < 70%
8 | O=C(Nc1ncccc1O)c1ccc(Cn2cccn2)cc1 | < 70%
9 | CCN(CC(=O)Nc1ccccc1-c1ccccc1)Cc1nc(=O)c2ccccc2[nH]1 | < 70%
10 | C=C(C)COc1ccc(-c2n[nH]c(C)c2-c2ccc(OC)c(OC)c2)c(O)c1 | < 70%
11 | O=C(Nc1ccccc1O)c1ccc(Cn2ccnc2)cc1 | < 70%
12 | CC(C)(C)c1ccc(C(=O)NCCOc2ccccc2F)cc1 | < 70%
13 | N#C/C(=N\Nc1cccc(Cl)c1)C(=O)c1cc(-c2ccccc2)c(C(F)(F)F)s1 | < 70%
14 | O=C(c1cnc2cc3c(cc2c1)OCCO3)c1cc(F)ccc1O | < 70%
15 | Cc1cc(=O)n2nc(-c3ccc(C(C)(C)C)cc3)cc2[nH]1 | < 70%
16 | Oc1c2c(nc3cc(-c4ccccc4)nn13)CCCC2 | < 70%
17 | Cc1nc(-c2ccccn2)nc(NCCc2ccc(S(C)(=O)=O)cc2)c1Cl | < 70%
18 | CCCNC(=O)N1CCC2(CC1)CC(=O)c1cc(C)ccc1O2 | < 70%
19 | O=c1nc(-c2ccccn2)[nH]c2scc(-c3ccccc3)c12 | < 70%
20 | O=C(NC1CC1)c1ccc(N2CCC(Cc3ccccc3)CC2)nc1 | < 70%
21 | FC(F)(F)c1ccc(Nc2nnnc3ccccc23)cc1 | < 70%
22 | CCS(=O)(=O)c1ncc(Cl)c(C(=O)Nc2ccccc2C(F)(F)F)n1 | < 70%
23 | Cc1cc(N2CCN(C)CC2)n2ncc(-c3ccc(F)cc3)c2n1 | < 70%
24 | Cc1ccc2c(C)nc(Nc3nc(C)cc(-c4ccccc4)n3)nc2c1 | < 70%

Row | Compound | growth inhibition at single dose
25 | CCCc1c(C)nc2ccccc2c1O | < 70%
26 | O=C(Nc1ccccc1-c1nc2c(C(=O)O)cccc2o1)c1ccccc1 | < 70%
27 | Cc1ccc(NC(=O)c2cc3c(s2)CCCCCC3)nc1 | < 70%
28 | CC1CCCN(C(=O)C(C)Nc2cc(Cl)ccc2N2CCOCC2)C1 (stereo unspecified) | < 70%
29 | O=C(CSc1nnc(C2CC2)o1)NCCC1=CCCCC1 | < 70%
30 | Cc1cc(-c2cc(C(=O)N3CCCN(C)c4nc5ccccc5nc43)c3c(C)noc3n2)c(C)s1 | < 70%
31 | Cc1ccc(NC(=O)c2nc[nH]c2C(=O)Nc2nc3ccccc3[nH]2)c(C)c1 | < 70%
32 | CCOc1ccccc1NC(C)C(=O)Nc1cc(C(F)(F)F)ccc1N1CCOCC1 (stereo unspecified) | < 70%
33 | N#Cc1ccc(-c2ccc(OCC(N)=O)cc2)cc1 | < 70%
34 | CCc1cccc2c(C(=O)COC(=O)C34CC5CC(CC(O)(C5)C3)C4)c[nH]c12 | < 70%
35 | CCCCc1ccc(NS(=O)(=O)c2cc3c4c(c2)CCN4C(=O)CC3)cc1 | < 70%
36 | CC(C)(C)C(=O)Nc1ccc(-c2nc3ncccc3o2)c(Cl)c1 | < 70%
37 | COc1ccc(C2=NOC(C(N)=O)C2)cc1OC (stereo unspecified) | < 70%
38 | CCCn1nc(C(=O)NCCc2ccc(-n3cccn3)cc2)c2ccccc2c1=O | < 70%
39 | CCCOc1ccc(C(F)(F)F)cc1NC(=O)c1nc2nccc(C)n2n1 | < 70%
40 | Cc1ccc2nc(C)cc(Nc3cccc(C(F)(F)F)c3)c2c1 | < 70%
41 | CCc1c(C)nc(-n2nc(C)cc2NC(=O)c2ccccc2SC)[nH]c1=O | < 70%
42 | Cc1ccc(-c2cc3c(nn2)-c2ccccc2C3=O)cc1 | < 70%
43 | CC(=O)Nc1nnc(SCc2c(C)cc(C(C)(C)C)cc2C)s1 | < 70%
44 | COc1ccc(-n2ccnc2SCC(=O)Nc2cc(C)ccc2C)c(OC)c1 | < 70%
45 | CNC(=O)c1ccc(CN(Cc2ccc(SC)cc2)Cc2ccco2)cc1 | < 70%
46 | CC(C)(C)n1ncc(C(=O)NCCOc2ccccc2)c1C(F)(F)F | < 70%
47 | O=C(c1cc(-c2ccccc2)n[nH]1)N1CCN(S(=O)(=O)c2ccccc2)CC1 | < 70%
48 | CCOC(=O)c1cnc2ccc(OC)cc2c1NCc1ccccc1 | < 70%

Row | Compound | growth inhibition at single dose
49 | Cc1cc(C)n(-c2nc(-c3ccccc3)cc(N(C)CCO)n2)n1 | < 70%
50 | CCc1c(C(=O)Nc2ccn(CCc3ccccn3)n2)cnn1C(C)(C)C | < 70%
51 | Clc1ccc2c(N3CCCC3)ccnc2c1 | < 70%
52 | CCn1cnc2c(Nc3cc(F)cc(F)c3)nc(C#N)nc21 | < 70%
53 | Cc1ccc(-c2cnn3c(NCCN(C)C)cc(C)nc23)cc1 | < 70%
54 | Cc1[nH]c(-c2ccc(F)cc2)cc1C(=O)NC1CCN(Cc2ccccc2)CC1 | < 70%
55 | COc1ccccc1CN1CCN2C(=O)[C@@H](Cc3ccc(O)cc3)NC(=O)[C@H]2C1 | < 70%
56 | Cc1nc(C(=O)N2CCc3c(c(C(=O)NC4CCCC4)nn3CC(C)C)C2)cs1 | < 70%
57 | O=C(Cn1nnc2ccccc2c1=O)c1ccc(C2CCCCC2)cc1 | < 70%
58 | O=C(Cn1ccnc1[N+](=O)[O-])NCc1ccccc1 | < 70%
59 | CC1CC(Nc2ccccc2)c2ccccc2N1S(=O)(=O)c1ccc(Br)cc1 (stereo unspecified) | < 70%
60 | O=C(c1ccc(F)cc1)N(CCNc1ccccc1)c1ccccc1 | < 70%
61 | c1ccc2c(NCCc3c[nH]c4ccccc34)c3ccccc3nc2c1 | < 70%
62 | Nc1nn(C(=O)c2csc3ccccc23)c2ccccc12 | < 70%
63 | Cn1ncc2c(N3CCN(CC(=O)Nc4nc(-c5c[nH]c6ccccc56)cs4)CC3)ncnc21 | < 70%
64 | CN(C)c1ccc(C(=O)Nc2cnc3ccccc3c2)cc1 | < 70%
65 | Cc1cc(C(=O)Oc2ccccc2C(N)=O)c(C)n1Cc1ccco1 | < 70%
66 | N=c1c2ccccc2nnn1-c1cccc(C(F)(F)F)c1 | < 70%
67 | CCn1c(O)c(C2NCCc3c2[nH]c2ccc(OC)cc32)c(=O)[nH]c1=O (stereo unspecified) | < 70%
68 | CN(C)CCCNc1c2ccccc2nc2ccccc12 | < 70%
69 | CCCn1c(CNc2ccccc2O)nc2ccccc21 | < 70%
70 | c1cncc(NCc2ccc(-c3cc4ccncc4cc3OC3CCNCC3)s2)c1 | < 70%
71 | CCOc1ccccc1CNC(=O)C1c2ccccc2C(=O)N(CC(C)C)C1c1cccs1 (stereo unspecified) | < 70%
72 | N=c1n(CCN2CCCCC2)c2ccccc2n1CC(=O)c1ccc(Cl)c(Cl)c1 | < 70%

Row | Compound | growth inhibition at single dose
73 | FC(F)(F)c1nc(N2CCN(c3ccncc3)CC2)c2ccccc2n1 | < 70%
74 | O=C(c1ccccc1F)N(Cc1ccc(Cl)cc1)c1ccccn1 | < 70%
75 | CCn1nc(C(=O)NCc2ccc(OC)cc2)c2c1CCN(C(=O)C1Cc3ccccc3O1)C2 (stereo unspecified) | < 70%
76 | Cc1nc(-c2ccccn2)nc(N2CCCC2)c1Cl | < 70%
77 | Oc1c(I)cc(I)c2cccnc12 | < 70%
78 | COc1ccc(-c2nnc(SC(C)C(=O)NCCC3=CCCCC3)[nH]2)cc1 (stereo unspecified) | < 70%
79 | CNC(=O)c1nn(C)c2c1C(C)(C)Cc1cnc(Nc3ccc(N4CCN(C)CC4)cc3)nc1-2 | < 70%
80 | CCOC(=O)c1ccc(N2CCN(C(C)c3nc(C(C)C)no3)CC2)nc1 (stereo unspecified) | < 70%
81 | COc1ccc(-c2cc(=O)oc3c4c(ccc23)OCN(Cc2ccc(F)cc2)C4)cc1 | < 70%
82 | Cc1cnc(CCNC(=O)c2cc(-c3ccc(Cl)cc3)cs2)[nH]1 | < 70%
83 | CC(C)(C)c1ccc(C2CC3=Nc4ccccc4N(C(=O)c4ccccc4Cl)C(c4ccc(F)cc4)C3=C(O)C2)cc1 (stereo unspecified) | < 70%
84 | CC(C)c1ncc(-c2ccncc2)c([C@H]2CC[C@H](CNC(=O)c3cccnc3)CC2)n1 | < 70%
85 | CC1CC2=C(CC1CNCCCN(C)C)C(C)(C)CCC2 (stereo unspecified) | < 70%
86 | CCCc1c(CC)c(=N)c2ccccc2n1C | < 70%
87 | N#CCc1c(C#N)c(N)nc(Nc2ccc(F)cc2F)c1C#N | < 70%
88 | CC(=O)NCc1ccc(C(=O)Nc2ccccc2O)cc1 | < 70%
89 | O=C(Nc1ccc(N2CCNCC2)nc1)c1oc(-c2ccccc2)nc1C(F)(F)F | < 70%
90 | O=C(Nc1cccc([N+](=O)[O-])c1)c1[nH]nc2ccccc12 | < 70%
91 | Cc1cc(Nc2ccc(C)c(Cl)c2)n2nc(C(F)(F)F)nc2n1 | < 70%
92 | Nc1nnc(SCc2c(F)cccc2Cl)[nH]1 | < 70%
93 | COc1ccc(NC(=O)c2ccn[nH]2)cc1NC(=O)c1ccc(Cl)cc1F | < 70%
94 | CCCCn1c(C(C)Oc2ccc(Cl)cc2Cl)nc2cc(S(N)(=O)=O)ccc21 (stereo unspecified) | < 70%
95 | OCC1CCCN(c2nn3cc(-c4ccccc4)nc3s2)C1 (stereo unspecified) | < 70%
96 | CCc1ccc(CNCC(O)c2ccccc2)cc1 (stereo unspecified) | < 70%
